Patent US20200306313A1, “METHODS AND COMPOSITIONS FOR NON-CYTOTOXIC STEM CELL TRANSPLANTATION” (THE BOARD OF REGENTS OF THE UNIVERSITY OF TEXAS SYSTEM, priority 2014, published 2020)

Experiments:
[1] = without irradiation and chemotherapy; cited from earlier work
MitoPark™ mice = assay: Spontaneous locomotor activity of MitoPark mice; format: in vivo
From the text: Vertical movements declined earlier and faster than horizontal movements (data not shown), modeling the early occurrence of axial postural instability in PD. […] The MitoPark™ mice began to lose weight from ˜20 weeks and died at 29-33 weeks of age, at which point the majority of substantia nigra DA neurons had been lost.

[2] = system: substantia nigra microglia; assay: Recruitment of bone marrow-derived microglia to substantia nigra after MPTP; format: in vivo; conditions: MSP-GFP mice nine weeks after the last injection of MPTP
Experimental: (§1) Eight weeks after transplantation, recipient mice were injected with MPTP to induce dopaminergic neurodegeneration. MPTP dissolved in saline was injected subcutaneously into MSP-GDNF and MSP-GFP mice as follows: 15 mg/kg free base MPTP on day 1, 25 mg/kg on day 2, and 30 mg/kg on days 3-7. Control mice were treated with saline following the same regimen. Nine weeks after the last injection of MPTP or saline, MSP-GFP mice were sacrificed to evaluate the differentiation of gene-modified macrophages into microglia and their recruitment to substantia nigra.

[3] = system: TH-positive cells in the SNpc; assay: Continuous MPTP osmotic minipump infusion, TH-positive and GFP cells in SNpc; format: in vivo, mice; conditions: continuous infusion 5 mg MPTP/kg daily for 28 days
Experimental: FIGS. 7A-B. Plots of quantitative stereologic data illustrating TH-positive cells in the SNpc from mice that were continuously treated with saline (n=3) or 5 mg MPTP/kg daily (n=2) for 28 days (FIG. 7A). Semi-quantitative analysis of GFP-positive cells in the nigra of mice that were continuously treated with saline (n=3) or 5 mg MPTP/kg daily (n =2) for 28 days. Each bar represents the mean±standard error of the total number of GFP-positive cells per five representative sections of substantia nigra pars compacta per animal (FIG. 7B).
The minipumps were implanted subcutaneously on the upper back of the animal. The minipumps delivers saline or MPTP at a flow rate 0.35μ1/hr for 28 days. The concentration of MPTP solution was adjusted in such a way that the animals receive or 5 mg MPTP/kg daily for 28 days. On day 30 (after the start of MPTP or saline) the animals were killed and the brains were analyzed for the loss of TH-posive cells and the recruitment bone marrow derived GFP cells in the SNpc.

mice = assay: Motor coordination tests in MPTP-only model; format: in vivo; conditions: MPTP-treated group vs saline-treated controls
From the text: MPTP/probenecid mouse model. […] In addition, spontaneous recovery of the nigrostriatal system that is typically observed with this regimen places limits on detection of changes in motor coordination. Mice were subjected to tests for motor coordination, including rotarod test, gait test/foot print analysis, pole test, beam walking test, and grid test.

[4] = system: TH-positive neurons in the SNpc; assay: Stereology of TH-positive neurons in SNpc after MPTP; conditions: MPTP-alone regimen
Experimental: as §1
Three or nine weeks after the last MPTP or saline injection, recipient mice were sacrificed and the neuroprotective effect of macrophage-mediated GDNF delivery on the nigrostriatal dopaminergic system was assessed by quantitative analysis of TH-positive neurons in the substantia nigra pars compacta (SNpc), as well as the density of TH-positive terminals in the striatum. […] In addition, total number of Nissl-stained neurons in the SNpc was counted for each treatment group to make sure that GDNF treatment indeed prevented actual cell death (FIG. 8).

[5] = cited from earlier work

## c1cc(CN2CCCNCCNCCCNCC2)ccc1CN1CCCNCCNCCCNCC1 [AMD3100]
[1]
  effectiveness as conditioning regimen: not to be sufficiently effective

## N[C@@H](Cc1ccc(O)c(O)c1)C(=O)O [L-DOPA]
MitoPark™ mice
  locomotor deficits: transiently reversed

## CN1CC=C(c2ccccc2)CC1 [MPTP, 1-methyl-4-phenyl-1,2,3,6-tetrahydropyridine]
[2]
  proportion of total microglia (Iba1-positive) in the nigra that were bone marrow derived: 47%
[3]
  increase in the number of bone marrow derived GFP cells in the SNpc: four-fold
  loss of TH-positive cells in the SNpc: approximately 31%
mice
  motor coordination (rotarod, gait/foot print, pole, beam walking, grid test): None of these tests showed statistically significant differences
[4]
  reduction in TH-positive cells: approximately 50%

B1: glial cell line derived neurotrophic factor (protein, UniProt P39905 78-211, looked up)
Glial cell line-derived …: SPDKQMAVLPRRERNRQAAAANPENSRGKGRRGQRGKNRGCVLTAIHLNVTDLGLGYETKEELIFRYCSGSCDAAETTYDKILKNLSRNRRLVSDKVGQACCRPIAFDDDLSFLDDNLVYHILRKHSAKRCGCI
[5]; direct brain infusion
  side effects: side effects, including allodynia and weight loss
[5]; high doses (100 μg/day) intraputamenal
  cerebellar toxicity: significant cerebellar Purkinje cell death
